Data on 70 compounds can be found in PubChem BioAssay AID179 (DTP/NCI, 2004).

The test system of the experiment is CEM cells HIV-1 protection, formazan growth assay. As to the kind of experiment: NCI AIDS Antiviral Assay. As to conditions: for pIC50: measured here: growth of uninfected CEM cells. In short, it runs like this: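 Category rules: moderately active means at least 50% protection on retest, and confirmed active means 100% protection reproducibly. The underlying data came from a formazan growth assay in HIV-1-infected CEM cells.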

pEC50, pIC50: −log10 of the molar value. Activity calls are given as the source filed them.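 How the source made its calls: active means compounds giving half or more protection of infected cells from virus-caused growth loss, again on retest; inactive means the rest.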 Some results are limits rather than exact numbers.

For `Cc1c(O)ccc2c(O)c(NC(=O)c3ccc4c(c3)CCC(C)(C)O4)c(=O)oc12`, the pEC50 (as a rule, the negative decadic logarithm of the EC50, by convention in mol/L) was under 3.70 and the pIC50 (usually −log10 of the IC50, conventionally taken in molar units) was 4.08.
For `CC(=O)Nc1cc(N=Nc2ccc(N=Nc3ccc(NC(=O)c4ccc(N)cc4)cc3C)cc2C)c(S(=O)(=O)O)cc1N=Nc1ccc(C(=O)O)cc1`, in that order: under 3.91 and 3.94.
For `Cc1ccc(/C=N/n2c(Cc3ccccc3)n[nH]c2=O)cc1`, in that order: under 3.70 and under 3.70.
For `O=C(Cn1c(-c2ccccc2)cc2ccccc21)N1CCCC1`, in that order: under 3.70 and 3.90.
With `Cc1ccc(Nc2cn(COCc3ccccc3)c(=O)[nH]c2=O)cc1`, the pEC50 was under 3.70 and the pIC50 was under 3.70.
In the case of `CC(C)(C)[Si](C)(C)O[C@@H](C(=O)OC1C=CCCC1)[C@@H](NC(=O)c1ccccc1)c1ccccc1` (stereo not given in full), the pEC50 was under 3.70 and the pIC50 was 4.91.
In the case of `CC(=O)Nc1ccccc1-c1ccccc1NC(C)=O`, the outcome was inactive.
In the case of `CCOP(=O)(OCC)/C(C#N)=C/c1cnc(-c2ccccc2)[nH]1`, the pEC50 was under 3.70 and the pIC50 was 3.99.
Turning to `CCCCCCOP(OCCCCCC)OCCCCCC`, the outcome was inactive.
Consider `COc1ccc([C@@H]2ON(C)[C@H]3CN(C)C(=O)[C@@H]23)cc1`, for which the pEC50 is under 3.70 and the negative logarithm of the IC50 (pIC50) is under 3.70.
In the case of `C/C=C(\C)C(=O)OCC12C(OC(C)=O)CC(C)C(C)(CCC3=CC(=O)OC3)[C@H]1CCCC21CO1` (stereo not given in full), the pEC50 is under 4.12 and the pIC50 is under 4.12.
With `O=C1c2c(O)cc(O)cc2C(C2OC(CO)C(O)C(O)C2O)c2cc(CO)cc(O)c21` (stereo not given), the pEC50 was under 3.70 and the negative logarithm of the IC50 (pIC50) was under 3.70.
Consider `S=P1(c2ccccc2)Nc2ccc(Cl)cc2N1` (stereo not given), for which the pEC50 is under 3.33 and the pIC50 was 5.04.
`Cc1ccc(-c2c3nc(c(-c4ccc(C)cc4)c4ccc([nH]4)c(-c4ccc(C)cc4)c4nc(c(-c5ccncc5)c5ccc2[nH]5)C=C4)C=C3)cc1.Cc1ccc(-c2c3nc(c(-c4ccc(C)cc4)c4ccc([nH]4)c(-c4ccc(C)cc4)c4nc(c(-c5ccncc5)c5ccc2[nH]5)C=C4)C=C3)cc1.Cc1ccc(-c2c3nc(c(-c4ccc(C)cc4)c4ccc([nH]4)c(-c4ccc(C)cc4)c4nc(c(-c5ccncc5)c5ccc2[nH]5)C=C4)C=C3)cc1.Cc1ccc(-c2c3nc(c(-c4ccc(C)cc4)c4ccc([nH]4)c(-c4ccc(C)cc4)c4nc(c(-c5ccncc5)c5ccc2[nH]5)C=C4)C=C3)cc1.O=S(=O)([O-])C(F)(F)F.[Pt]`: the pEC50 was under 4.60 and the pIC50 was 4.85.
`CNS(=O)(=O)NN(C)S(=O)(=O)c1ccc(Cl)cc1`: the pEC50 was under 3.68 and the negative-log IC50 (pIC50) is 3.69.
For the compound `CN(C)/C=N/NC(=O)C(O)(c1ccccc1)c1ccccc1`, the pEC50 was under 3.70 and the pIC50 is under 3.70.
In the case of `C1CCC2(CC1)SSSC1(CCCCC1)SS2`, the pEC50 is under 4.00 and the pIC50 was under 4.00.
Take `CCSC(=O)NNc1nc2ccccc2s1`: the pEC50 was under 3.70 and the negative logarithm of the IC50 (pIC50) was 4.20.
For `O=C1NC(=O)C2C(=O)NC(=O)C1C2(c1ccccc1)c1ccc(Cl)cc1` (stereo not given), in that order: under 3.17 and 3.33.
The corresponding values for `N#CCC1(c2ccc(Cl)cc2)NC(=O)c2ccccc21` (stereo not given) are under 3.70 and 3.93.
For `CN(Cc1cnc2nc(N)nc(N)c2n1)c1ccc(C(=O)NC(CCC(=O)O)C(=O)O)c2ccccc12` (stereo not given), in that order: under 6.70 and 8.66.
For `CC(C)N(C(=O)C12C3C4C5C3C1(C(=O)N(C(C)C)C(C)C)C5(C#N)C42)C(C)C` (stereo not given), the pEC50 is under 4.03 and the pIC50 is under 4.03.
Turning to `Cc1cc(=O)oc2c(C)c(OCCCOc3ccc4c(C)cc(=O)oc4c3C)ccc12`, the pEC50 was under 4.49 and the pIC50 is under 4.49.
Consider `COC1CCC2=CCC3C(=O)N(c4ccccc4)C(=O)C3C21` (stereo not given), for which the pEC50 was under 3.22 and the negative logarithm of the IC50 (pIC50) was under 3.22.
On to `Brc1ccccc1C1SCc2nc3ccccc3n21` (stereo not given), for which the result was inactive.
As for `CC(C)C(CCl)NC(=O)c1cccc(C(=O)N[C@H](CCl)C(C)C)n1` (stereo in doubt), the pEC50 was under 4.16 and the negative logarithm of the IC50 (pIC50) was under 4.16.
In the case of `O=C1Sc2ccccc2C(=O)N2CCCC12` (stereo not given), the pEC50 is under 3.70 and the pIC50 is under 3.70.
Turning to `CC(=O)Nc1ncc2ccccc2c1-c1ccc(NC(=O)CN(CCO)CCO)cc1`, the pEC50 was under 3.70 and the pIC50 was under 3.70.
On to `CC(Oc1ccccc1)C(=O)NN` (stereo not given), for which the pEC50 is under 3.70 and the pIC50 is under 3.70.
As for `CC1CC(c2ccc(Cl)c(Cl)c2)=Nc2ccccc2S1` (stereo not given), the pEC50 was under 5.21 and the pIC50 was under 5.21.
Take `CC(C(N)=O)N(C)C(=O)c1cc2ccccc2[n+](Cc2ccccc2)c1` (stereo not given): the result was inactive.
Regarding `COC(=O)c1noc2c1CSc1ccccc1-2`, the pEC50 was under 3.58 and the pIC50 is 3.91.
The corresponding values for `C/C=C/C=C\C(=O)C1c2cccc(O)c2C(=O)c2c(O)cc(C)cc21` (stereo not given) are under 4.67 and 5.41.
For `CC(=O)NC1C(CO)O[C@@H]2OC(C)(C)O[C@H]12` (stereo not given in full), in that order: under 3.70 and under 3.70.
For `CO[C@@]12[C@@H]3N[C@@H]3CN1C1=C(C(=O)C(N3CCCC3)=C(C)C1=O)[C@@H]2COC(N)=O`, in that order: under 3.70 and 6.20.
Turning to `CC1(C)CCC(C)(C)c2cc(NC(=O)c3ccc(C(=O)O)cc3)ccc21`, the pEC50 was under 3.70 and the negative-log IC50 (pIC50) is 4.02.
As for `COc1ccc2[nH]c(=O)c(C(C)=O)c(O)c2c1`, the pEC50 was under 3.70 and the negative-log IC50 (pIC50) is under 3.70.
Turning to `CN(C)P(=O)(N(C)C)N(C)C.[CH3][Sn]([CH3])([Cl])[Cl]`, the outcome was inactive.
Still for that read-out and setting: the same measure for `O=C1CC(c2cccc(Br)c2)n2cccc21` (stereo not given): “inactive”.
Regarding `O=c1cn[nH]c2c(Br)cccc12`, the pEC50 is under 3.32 and the negative logarithm of the IC50 (pIC50) is 3.56.
For `CCc1n[nH]c(=S)n1/N=C/c1ccc(-c2ccc([N+](=O)[O-])cc2)o1`, in that order: under 4.96 and under 4.96.
For `O=C1NC(N2CCCCC2)=N/C1=C\c1cccs1`, in that order: under 3.70 and 3.82.
As for `C/C(=N\NC(=S)N1CC2CCC(CC2)C1)c1cccc(C)n1`, the pEC50 is under 4.50 and the negative logarithm of the IC50 (pIC50) is 6.26.
For `O=c1cc(O)c2c(O)cc(O)cc2o1`, in that order: under 3.70 and under 3.70.
For `NNC(=O)c1ccc(OCc2nc3ccccc3[nH]2)cc1`, the pEC50 is under 3.70 and the pIC50 is 4.17.
For `C=CC(=O)c1ccc2c(c1)OCCOCCOCCOCCOCCO2`, in that order: under 3.17 and 5.15.
For `CO/C(=N\N=C\c1ccc(Cl)c(Cl)c1)c1ccncc1`, in that order: under 4.63 and under 4.63.
For `O=CSC(=Nc1ccc(Cl)cc1)NC(=O)COc1ccc(Cl)cc1`, in that order: under 3.83 and under 4.00.
As to `Cn1cnc([N+](=O)[O-])c1Sc1nc(N)nc2nc[nH]c12`, the pEC50 was under 3.70 and the negative logarithm of the IC50 (pIC50) was 5.47.
`CN1CCC/C1=C1\C(=O)c2cccn2C1=O`: the pEC50 was under 3.70 and the pIC50 was under 3.70.
`CCCCCCCCCCCCC(SCCNC(=O)CCNC(=O)C(O)C(C)(C)COP(=O)(O)OP(=O)(O)OCC1OC(n2cnc3c(N)ncnc32)C(O)C1OP(=O)(O)O)C(=O)NCC(N)=O` (stereo not given): the result was inactive.
`CCOP(=O)(OCC)C1=NC=CC=CC1n1c(-c2ccccc2)nn(CC)c1=O` (stereo not given): the pEC50 is under 3.22 and the negative-log IC50 (pIC50) is 3.38.
The corresponding values for `O=S(=O)(c1ccc(F)cc1)c1ccc(F)cc1` are under 3.70 and under 3.70.
For the compound `COc1cc(NS(=O)(=O)c2ccc(C)cc2)c2nccnc2c1`, the pEC50 was under 3.69 and the negative-log IC50 (pIC50) was 4.11.
For `N#C/C1=C(\N)CCSSSC1`, in that order: under 3.34 and 4.64.
The corresponding values for `O=C(c1ccccc1)c1ccsc1C(=O)O` are under 3.70 and under 3.70.
With `Cc1cc(C)nc(NS(=O)(=O)c2ccc(NNc3c4ccccc4nc4c(C(=O)Nc5ccc(S(=O)(=O)Nc6cc(C)on6)cc5)cccc34)cc2)n1`, the pEC50 is under 3.70 and the negative logarithm of the IC50 (pIC50) was 4.46.
With `CC(=O)CC(=O)CCCC(=O)Nc1ccc(Cl)cc1Cl`, the outcome was inactive.
Same read-out and setting: in the case of `CCCC(=O)NC(Nc1ccc(F)cc1)(C(F)(F)F)C(F)(F)F` it was “inactive”; in that of `COc1cccc(C2CC(=O)c3cccn32)c1` (stereo not given), “inactive”.
As to `N#Cc1ccc(C2OCC3CC=CCC3CO2)cc1` (stereo not given), the pEC50 is under 4.27 and the negative logarithm of the IC50 (pIC50) is under 4.27.
For `CCN1CCC(O)(c2ccc(Oc3ccc(C)cc3)cc2)C(C(=O)c2ccc(Oc3ccc(C)cc3)cc2)C1` (stereo not given), the pEC50 was under 3.70 and the pIC50 is 5.42.
The corresponding values for `CCOc1ccc(C2OCCC(C)O2)cc1OC` (stereo not given) are under 3.70 and under 3.70.
The corresponding values for `Cc1cccc(/C=N/NC(=S)NCc2ccccn2)n1` are under 3.70 and 4.53.
For `CC1(C)C2CCC1(CS(=O)O)C(=O)C2.[Ag]` (stereo not given), in that order: under 3.40 and 5.10.
Consider `CC(=O)NC(CCC(=O)c1ccc(Cl)cc1Cl)C(=O)O` (stereo not given), for which the pEC50 was under 3.70 and the pIC50 is under 3.70.
With `CCC1=CCN(c2cc(C)ccn2)OC1c1ccc(OC)cc1` (stereo not given), the pEC50 is under 4.49 and the negative-log IC50 (pIC50) is under 4.49.
Consider `COC(=O)CCC(=O)c1ccc2c(c1)CC1(C2)Cc2ccc3c(c2C1)CCCC3=O` (stereo not given), for which the pEC50 was under 3.70 and the negative logarithm of the IC50 (pIC50) is 5.07.
The corresponding values for `C(=C(c1ccccc1)c1ccccc1)N1CCOCC1` are under 3.70 and under 3.70.
For `COc1ccc(/C=[N+](\[O-])[C@H](COCc2ccccc2)c2ccccc2)cc1`, in that order: under 4.14 and under 4.14.
